From publication PMC2763345 (PLoS Pathogens, 2009)
In brackets after ≈: the same amount, converted by molar mass.

Key:
[1] = test system: BCG Rv3790/DprE1 Cys387Ser (BN2); assay type: cell-based, M. bovis BCG
[2] = test system: M. smegmatis Rv3790/DprE1 Cys387Gly (MN47); assay type: cell-based
[3] = test system: M. smegmatis Rv3790/DprE1 Cys387Ser (MN84); assay type: cell-based

SMILES | MIC [1] [µg/mL] | MIC [2] [µg/mL] | MIC [3] [µg/mL]
O=C(NCCOCc1ccccc1)c1cc([N+](=O)[O-])cc([N+](=O)[O-])c1 [Compound 7, N-(2-(benzyloxy)ethyl)-3,5-dinitrobenzamide] | > 10 |  | 
COc1ccc(OCCNC(=O)c2cc([N+](=O)[O-])cc([N+](=O)[O-])c2)cc1 [Compound 8, N-(2-(4-methoxyphenoxy)ethyl)-3,5-dinitrobenzamide] | > 10 |  | 
CO[C@H]1/C=C/O[C@@]2(C)Oc3c(C)c(O)c4c(O)c(c(/C=N/N5CCN(C)CC5)c(O)c4c3C2=O)NC(=O)/C(C)=C\C=C\[C@H](C)[C@H](O)[C@@H](C)[C@@H](O)[C@@H](C)[C@H](OC(C)=O)[C@@H]1C [Rifampin] | 0.31 (≈ 0.377 µM) | 0.31 (≈ 0.377 µM) | 0.31 (≈ 0.377 µM)
